{
  "source": "patent US20150150892A1",
  "about": "“METHODS AND PRODUCTS RELATED TO LUNG CANCER” (Massachusetts Institute of Technology, priority 2012, published 2015)",
  "key": {"[1]": {"system": "NF-κB transcription factor subunit p65", "assay": "Immunoblot of nuclear and cytoplasmic p65 in KP cell lines", "assay_type": "cell-based, mouse", "details": "5 nM bortezomib, 24 hours, KP1 and KP2 cell lines, vs vehicle control", "method": "(§1) FIG. 1. Bortezomib inhibits NF-κB signaling and induces apoptosis in murine lung adenocarcinoma cell lines. (1A) reduction of nuclear p65 level by bortezomib. Two KP (KrasLSL-G12D/wt;p53flox/flox) cell lines (KP1 and KP2) were treated with 5 nM bortezomib (BZ) or vehicle control (ctrl) for 24 hours. Nuclear (N) and cytoplasmic (C) fractions of protein lysates were immunoblotted with the indicated antibodies. NEMO and Parp serve as cytoplasmic and nuclear loading controls, respectively. (1B) quantitative PCR analysis of a subset of NF-κB target genes in 5 nM bortezomib (BZ)-treated KP cells at the indicated time points. Vehicle control is set to 1. (1C) apoptosis in KP and KP^M (KrasLSL-G12D/wt;p53R127H/−) cells induced by bortezomib. Cells were pre-treated with 5 nM bortezomib for 24 hours, and protein lysates were immunoblotted with CC3 and tubulin antibodies. (1D) quantification of cell death in bortezomib-treated cells. Cells were treated with the indicated concentrations of bortezomib for 24 hours, and dead cells were quantified by Trypan blue staining. Error bars are SD (n=3).\nCell pellets were lysed in Laemmli buffer. Equal amounts of protein (16 μg) were separated on 10% SDS-polyacrylamide gels and transferred to polyvinylidene difluoride membranes. […]"}, "[2]": {"system": "CDK inhibitors p21 and p27", "details": "cited from earlier work"}, "[3]": {"system": "K lung tumors", "assay": "CC3 immunohistochemistry in K lung tumors", "assay_type": "in vivo, mouse", "details": "KrasLSL-G12D/wt mice, all time points assayed", "method": "FIG. 4: Bortezomib induces apoptosis in KP lung tumors. (4A and 4B) H&E and CC3 immunohistochemistry staining (×200) in vehicle control- and bortezomib-treated KP (4A) and K (4B) lung tumors. (4C and 4D) quantification of CC3-positive cells in bortezomib-treated KP (4C) and K (4D) lung tumors at indicated time points. “0 hour” represents vehicle control-treated tumors. Error bars are SD (n>10 for each time point).\nMice were sacrificed by carbon dioxide asphyxiation. Lungs were inflated with 4% formalin (neutral buffered formalin), fixed overnight, and transferred to 70% ethanol. Lung lobes were embedded in paraffin and sectioned at 4 μm and stained with H&E for tumor pathologic study. For staining with anti-CC3 antibodies (#9661; Cell Signaling), lung tumor sections were dewaxed, rehydrated, and subjected to high-temperature antigen retrieval—10 minutes of boiling in a pressure cooker in 0.01 M citrate buffer, pH 6.0. Slides were stained overnight at 4° in 1:100 primary antibody. A goat anti-rabbit horseradish peroxidase-conjugated secondary antibody (Vector Laboratories) was used at 1:200 dilution, incubated for 1 hour at room temperature, followed by diaminobenzidine staining (Vector Laboratories). The number of positive cells per tumor area was quantified using Bioquant software from >10 tumors in ≧3 mice per group (2)."}, "[4]": {"system": "Bortezomib-resistant KP cell lines", "details": "upon bortezomib treatment; viability 24 hours, colonies 7 days", "description": "(12A) Relative cell viability in cell lines treated with increasing doses of Bortezomib for 24 hours. Cells lines were outgrown from Bortezomib resistant orthotopic tumors (resistant 1&2) or sensitive tumors (sensitive) as in FIG. 6C. Error bars are s.d. (n=3). (12B) Colony formation assay in Bortezomib-resistant cells. 104 cells were plated in 6-well plate and treated with indicated drug concentration. Plates were stained 7 days later with crystal violet solution. Drug-containing medium was refreshed every 4 days.\nCells were split into 96-well plates (5,000 cells per well). After 24 hours, cells were treated with bortezomib, and 24 hours later cell viability was measured by the Cell Titer Aqueous Kit (Promega) in triplicates. Vehicle control-treated cell values were set to 1 (100% viability)."}, "[5]": {"system": "LKR13 cells and 3TZ fibroblasts", "assay": "Trypan blue quantification of cell death, control cells", "assay_type": "cell-based, mouse", "details": "24 hours"}, "[6]": {"system": "KP and KP^M cells", "assay": "Cleaved caspase 3 (CC3) immunoblot in lung adenocarcinoma cells", "assay_type": "cell-based, mouse", "details": "5 nM bortezomib, 24 hours, KP and KP^M cells", "method": "as §1\nFIG. 17: Bay-117082 induces cell death In KP cells. […] (17B) Bay-117082 induces apoptosis in KP cells. Cells were treated with 10IJM Bay-117082 for 48 hours. Protein lysates were immunoblotted with cleaved caspase 3 (CC3) and Tubulin antibodies.\nCell pellets were lysed in Laemmli buffer. […]"}},
  "data": [
    {"smiles": "CC(C)C[C@H](NC(=O)[C@H](Cc1ccccc1)NC(=O)c1cnccn1)B(O)O", "note": "[bortezomib, N-(2-pyrazine) carbonyl-L-phenylalanine-L-leucine boronic acid]", "values": [
      {"measurement": "nuclear accumulation of p65", "setting": "[1]", "result": "reduced nuclear accumulation"},
      {"measurement": "effect on CDK inhibitors p21 and p27", "setting": "[2]", "result": "stabilize"},
      {"measurement": "apoptotic cells in K-only tumors", "setting": "[3]", "result": "did not detect a substantial number of apoptotic cells"},
      {"measurement": "viability and colony formation of resistant cells compared with sensitive cells", "setting": "[4]", "result": "higher viability and increased colony formation"},
      {"measurement": "cell death by Trypan blue counting", "setting": "[5]", "result": "did not show substantial cell death"},
      {"measurement": "cleaved caspase 3 (CC3)", "setting": "[6]", "result": "increased cleaved caspase 3"}
    ]}
  ]
}
